Test results published in patent US7015309B1 (The Wistar Institute of Anatomy and Biology, priority 1999, dated 2006).
Where two headings read alike, the source gives them in different places. Non-standard residues stand in square brackets, D forms with d. Residues, ends and D or L forms follow the SMILES beside them. *: point of attachment. 5FAM = O=C1OC2(c3ccc(O)cc3Oc3cc(O)ccc32)c2ccc(C(=O)*)cc21; Biotin = O=C1N[C@H]2[C@H](CS[C@H]2CCCCC(=O)*)N1; Ac6c = NC1(C(=O)O)CCCCC1; X2 = O=C1CCCC1N*

How the values were obtained:
Micrococcus luteus = conditions: 24 h
Method: (§1) Growth inhibition assays were performed using the peptides of Example 1 and the Gram positive microorganisms Micrococcus luteus and Bacillus megaterium, and the Gram negative microorganisms, Escherichia coli D22, Agrobacterium tumefaciens, and Salmonella typhimurium. Anti-bacterial assays were performed in sterilized 96-well plates (Nunc F96 microtiter plates) with a final volume of 100 μl as described in Bulet (1996), cited above. Briefly, 90 μl of a suspension of a midlogarithmic phase bacterial culture at an initial 600 nm UV absorbence of 0.001 in Luria-Bertani rich nutrient medium was added to 10 μl of serially diluted peptides in sterilized water. The final peptide concentrations ranged between 0.15 and 80 μM. The plates were incubated at 30° C. for 24 hours with gentle shaking, and the growth inhibition was measured by recording the increase of the UV absorbence at 600 nm on an SLT Labinstruments 400 ATC microplate reader. The experiments were conducted over a 7-month period.

Salmonella typhimurium = conditions: murium, 24 h
Method: as §1

Bacillus megaterium = tested on: Bacillus megaterium
Method: as §1

[1] = tested on: Agrobacterium tumefaciens; conditions: 24 h
Method: as §1

[2] = read-out: IC50 in μM against Bacillus megaterium, 30° C., 24 hours, for Peptide 22 original assay (a)

Row | SMILES | IC50 (Micrococcus luteus) [µM] | IC50 (Salmonella typhimurium) [µM] | IC50 (Bacillus megaterium; Bacillus, 24 h) [µM] | IC50 [1] [µM] | IC50 (Bacillus megaterium; [2]) [µM]
1 | CC[C@H](C)[C@H](NC(=O)[C@@H]1CCCN1C(=O)[C@H](CCCNC(=N)N)NC(=O)[C@@H]1CCCN1C(=O)[C@@H]1CCCN1C(=O)[C@@H](NC(=O)[C@@H]1CCCN1C(=O)[C@H](CCCNC(=N)N)NC(=O)[C@@H]1CCCN1C(=O)[C@H](CC(C)C)NC(=O)[C@H](Cc1ccc(O)cc1)NC(=O)[C@H](CO)NC(=O)CNC(=O)[C@H](CCCCN)NC(=O)[C@H](CC(=O)O)NC(=O)C1(N)CCCCC1)[C@@H](C)O)C(=O)N[C@@H](Cc1ccc(O)cc1)C(=O)N[C@@H](CC(N)=O)C(=O)N[C@@H](CCCNC(=N)N)C(=O)N[C@@H](CC(N)=O)C(N)=O [Peptide 6] (H-[Ac6c]DKGSYLPRPTPPRPIYNRN-NH2; N-terminus and C-terminus assumed) | 5 | 2.5 | 10 | 1.25 | 
2 | CC[C@H](C)[C@H](NC(=O)[C@@H]1CCCN1C(=O)[C@H](CCCNC(=N)N)NC(=O)[C@@H]1CCCN1C(=O)[C@@H]1CCCN1C(=O)[C@@H](NC(=O)[C@@H]1CCCN1C(=O)[C@H](CCCNC(=N)N)NC(=O)[C@@H]1CCCN1C(=O)[C@H](CC(C)C)NC(=O)[C@H](Cc1ccc(O)cc1)NC(=O)[C@H](CO)NC(=O)CNC(=O)[C@H](CCCCN)NC(=O)[C@H](CC(=O)O)NC(=O)[C@@H](NC(=O)[C@H](CCCCN)NC(C)=O)C(C)C)[C@@H](C)O)C(=O)N[C@@H](Cc1ccc(O)cc1)C(=O)N[C@@H](CC(N)=O)C(=O)N[C@@H](CCCNC(=N)N)C(=O)NC1CCCC1=O (some centres unmarked) [Peptide 8] (Ac-KVDKGSYLPRPTPPRPIYNR-X2; N-terminus and C-terminus assumed) | 5 | 2.5 | 20 | 1.25 | 
3 | CC[C@H](C)[C@H](NC(=O)[C@@H]1CCCN1C(=O)[C@H](CCCNC(=N)N)NC(=O)[C@@H]1CCCN1C(=O)[C@@H]1CCCN1C(=O)[C@@H](NC(=O)[C@@H]1CCCN1C(=O)[C@H](CCCNC(=N)N)NC(=O)[C@@H]1CCCN1C(=O)[C@H](CC(C)C)NC(=O)[C@H](Cc1ccc(O)cc1)NC(=O)[C@H](CO)NC(=O)CNC(=O)[C@H](CCCCN)NC(=O)[C@H](CC(=O)O)NC(=O)[C@H](N)C(C)C)[C@@H](C)O)C(=O)N[C@@H](Cc1ccc(O)cc1)C(=O)N[C@@H](CC(N)=O)C(=O)N[C@@H](CCCNC(=N)N)C(=O)N[C@H](CC(N)=O)C(N)=O [Peptide 12] (H-[dV]DKGSYLPRPTPPRPIYNR[dN]-NH2; N-terminus and C-terminus assumed) | 10 | 5 |  | 2.5 | > 80
4 | CC[C@H](C)[C@H](NC(=O)[C@@H]1CCCN1C(=O)[C@H](CCCNC(=N)N)NC(=O)[C@@H]1CCCN1C(=O)[C@@H]1CCCN1C(=O)[C@@H](NC(=O)[C@@H]1CCCN1C(=O)[C@H](CCCNC(=N)N)NC(=O)[C@@H]1CCCN1C(=O)[C@H](CC(C)C)NC(=O)[C@H](Cc1ccc(O)cc1)NC(=O)[C@H](CO)NC(=O)CNC(=O)[C@H](CCCCN)NC(=O)[C@H](CC(=O)O)NC(=O)[C@@H](NC(=O)[C@H](CCCCN)NC(=O)CCCC[C@@H]1SC[C@@H]2NC(=O)N[C@@H]21)C(C)C)[C@@H](C)O)C(=O)N[C@@H](Cc1ccc(O)cc1)C(=O)N[C@@H](CC(N)=O)C(=O)N[C@@H](CCCNC(=N)N)C(=O)N[C@@H](CC(N)=O)C(N)=O [Peptide 18] (Biotin-KVDKGSYLPRPTPPRPIYNRN-NH2) |  |  |  |  | > 80
5 | CC[C@H](C)[C@H](NC(=O)[C@@H]1CCCN1C(=O)[C@H](CCCNC(=N)N)NC(=O)[C@@H]1CCCN1C(=O)[C@@H]1CCCN1C(=O)[C@@H](NC(=O)[C@@H]1CCCN1C(=O)[C@H](CCCNC(=N)N)NC(=O)[C@@H]1CCCN1C(=O)[C@H](CC(C)C)NC(=O)[C@H](Cc1ccc(O)cc1)NC(=O)[C@H](CO)NC(=O)CNC(=O)[C@H](CCCCN)NC(=O)[C@H](CC(=O)O)NC(=O)[C@@H](NC(=O)[C@H](CCCCN)NC(=O)c1ccc2c(c1)C(=O)OC21c2ccc(O)cc2Oc2cc(O)ccc21)C(C)C)[C@@H](C)O)C(=O)N[C@@H](Cc1ccc(O)cc1)C(=O)N[C@@H](CC(N)=O)C(=O)N[C@@H](CCCNC(=N)N)C(=O)N[C@@H](CC(N)=O)C(N)=O [Peptide 19] (5FAM-KVDKGSYLPRPTPPRPIYNRN-NH2) |  |  |  |  | > 80
